Laboratory results as given in patent US20070092442A1, “F-18-fluorinated phosphonium cation imaging agents and methods of synthesis” (priority 2005, published 2007).

Tests used:
[1] = MicroPET imaging, biodistribution and pharmacokinetic in normal nude mice; assay type: in vivo, mouse; settings: for heart uptake / liver uptake: tail vein, microPET ROI
Experimental: PET imaging of normal nude mice was performed on a microPET R4 rodent model scanner (Concorde Microsystems Inc, Knoxville, Tenn.). The mice were injected with about 10-20 μCi of [^18F]FTPP via the tail vein. At 30 min, 1 hr, 2 hr, and 4 hr post injection, the mice were anesthetized with 2% isoflurane and placed in the prone position and near the center of the filed of view of microPET. The 10-min static scans were obtained, and the images were reconstructed by a two-dimensional ordered subsets expectation maximum (OSEM) algorithm. Regions of interest (ROIs) were then drawn over the […] on decay-corrected whole-body coronal images. The counts per pixel per minute were obtained from the ROI and converted to counts per milliliter per minute by using a calibration constant. By assuming a tissue density of 1 g/mL, the ROIs were converted to counts/g/min. An image ROI-derived percentage ID per gram of tissue (% ID/g) was then determined by dividing counts per gram per minute with injected dose (ID).

C6 cells [2] = assay: C6 cell uptake of phosphonium cations determined by MALDI-TOF-MS; assay type: cell-based, rat; settings: 5 μM; for rank of uptake in C6 cells among the compounds tested: 25° C.
Experimental: A rat glioma C6 cell line was grown in Dulbecco's modified Eagle medium (DMEM, Invitrogen Life Technologies, Carlsbad, Calif.) high glucose (containing KCl 5.3 mmol/L and NaCl 110.34 mmol/L) plus 10% fetal bovine serum (FBS), and 1% penicillin-streptomycin at 37° C. in 5% CO2/95% air. After trypsinization, cells were washed with 0.01 M phosphate-buffered saline (PBS, pH=7.4) twice and suspended at 10×10^6 cells /mL in low K^+ Hepes buffer (135 mM NaCl/5 mM KCl/1.8 mM CaCl2/0.8 mM MgSO4/50 mM Hepes [4-(-2-hydroxyethyl)-1-piperazineethanesulfonic acid]/5.5 mM dextrose, pH 7.4). 50 μL (0.5×10^6) of C6 cells were incubated with 10 μL 100 μM stock phosphonium salts solution ([…], the structures of these phosphonium cations are shown in FIG. 1) and 140 μL Hepes buffer from 10 to 90 min at room temperature. The cells were centrifuged (250×g) for three minutes and washed twice with cold PBS buffer at specified times. Cell pellets were then lysed with 150 μL cold spectral grade water, following by freezing in dry ice. Right before the MALDI-TOF-MS analysis, the frozen cell solution was thawed and centrifuged at 12000×g for 5 min. 90 μL cell lysate and 10 μL 10 μM internal standard MeTPP were mixed together, and 1 μL solution was subjected to MALDI-TOF-MS analysis. Samples were prepared and analyzed in triplicate.

C6 cells [3] = assay: Mitochondrial membrane potential (MMP) dependent uptake of FTPP in C6 cells (CCCP, valinomycin, high K+ Hepes buffer); assay type: cell-based, rat
Experimental: The extent of MMP and cell membrane potential-dependent cellular uptake of FTPP was further assessed using the C6 cells treated with CCCP, valinomycin, and high K^+ Hepes buffer (5 mM NaCl/135 mM KCl/1.8 mM CaCl2/0.8 mM MgSO4/50 mM Hepes/5.5 mM dextrose, pH 7.4). Carbonylcyanide-m-chlorophenylhydrazone (CCCP), a known protonphore that selectively abolishes the MMP,^26 was dissolved in dimethyl sulfoxide (DMSO) and diluted to desired concentration with low K^+ Hepes buffer. K^+-ionophore valinomycin was dissolved in ethanol and also diluted with low K^+ buffer. Final concentrations of ethanol and DMSO were below 0.1%. Varying concentrations of CCCP and valinomycin were added to the 0.5×10^6 cells in low K^+ Hepes buffer 30 min prior to the start of the experiment. After 1 hr of incubation with 5 μM FTPP, the eppendorf vials were centrifuged, cell lysate were prepared as described above, and the cell uptakes of FTPP were determined using MALDI-TOF-MS. Five sets of 0.5×10^6 cells were also suspended in high K^+ Hepes buffer for 60 min, then exposed to 5 μM FTPP for 10-90 min in high K^+ Hepes buffer. Cell uptake of FTPP was measured by MALDI-TOF-MS. The viability and the integrity of the cells after treatment with inhibitors and high K^+ buffer were examined using Trypan blue.

Compound: [18F]c1ccc([P+](c2ccccc2)(c2ccccc2)c2ccccc2)cc1 [[^18F]FTPP, (4-[^18F]fluorophenyl)triphenylphosphonium]
- heart uptake ([1]; 30 minutes pi): 5.59±0.93 % ID/g
- liver uptake ([1]; 30 minutes pi): 7.39±0.36 % ID/g
- heart uptake ([1]; 4 h pi): 3.89±0.29 % ID/g
- liver uptake ([1]; 4 h pi): 2.79±0.59 % ID/g
- localization in microPET images ([1]; female nude mouse, 15 μCi): clearly localized in the heart
- route of clearance ([1]; female nude mouse, 15 μCi): mainly cleared out through hepatobiliary system

Compound: Fc1ccc([P+](c2ccccc2)(c2ccccc2)c2ccccc2)cc1 [FTPP, 4-Fluorophenyltriphenyl phosphonium]
- rank of uptake in C6 cells among the compounds tested (C6 cells [2]): 2nd place
- uptake in C6 cells as percentage of the TPP uptake (C6 cells [2]; glioma C6 cells in vitro, MALDI-TOF-MS): 80%
- FTPP uptake (normalized) in presence of valinomycin (C6 cells [3]; 10 μM valinomycin, 5 μM FTPP, 1 hr, low K+ Hepes buffer): about 72.8±3.6%
- FTPP uptake (normalized) in presence of CCCP (C6 cells [3]; 50 μM CCCP, 5 μM FTPP, 1 hr, low K+ Hepes buffer): about 27.3±2.3%
- effect of CCCP or valinomycin on uptake (C6 cells [3]; CCCP 0.1-50 μM, valinomycin 0.1-10 μM, low K+ Hepes buffer): inhibited by CCCP or valinomycin in dose-dependent manners
- decrease in uptake on depolarization of the plasma membrane (high K+ vs low K+ buffer) (C6 cells [3]; high K+ Hepes buffer, 90 min exposure time, 5 μM FTPP): 3.5 fold

Compound: [Br-].c1ccc([P+](c2ccccc2)(c2ccccc2)c2ccccc2)cc1 [TPP, tetraphenylphosphonium bromide, reference compound]
- rank of uptake in C6 cells among the compounds tested (C6 cells [2]): highest uptake
